From patent US9902752B2, “5-fluorouracil derivatives” (B. Braun Melsungen AG, priority 2012, dated 2018)

Assay: Acidic stability (hydrolysis) of the O-2′,3′-ketal group
Format: physicochemical
Details: 1N aqueous HCl/MeCN 1:1 (v/v), RP-18 HPLC, calculated graphically; read-out: half-life under acidic conditions
Description: Both, the acidic hydrolysis of the O-2′,3′-ketal moiety of the ester 28a as well as the chitosanase-catalyzed degradation of chitosan foil-bound 5-fluorouridine was measured. Acidic stability was determined by incubating compound 28a (2 mg) in 1N aqueous HCl/MeCN 1:1 (v/v), neutralization by Et3N and subsequent RP-18 HPLC analysis as described above (FIG. 12).
The faster migrating zone contains always pure 5-fluorouridine, the slower migrating zone the residual ketal 28a. The half-life value was calculated graphically from a plot of the peak integral of both, the residual ketals and 5-fluorouridine vs. reaction time (FIG. 13). Upon acidic hydrolysis only the nucleoside and no 5-fluorouracil were formed.

A half-life of about 5 h was found for CCOC(=O)CCC1(C)OC2C(O1)[C@@H](CO)O[C@H]2n1cc(F)c(=O)[nH]c1=O (stereo partly shown) [Compound 28a] in this work.
